Source: patent publication US5162304A, “Pharmaceutical compositions and methods for treatment and prophylaxis of cancer” (priority 1990, dated 1992)
Values joined by “and” are separate entries in the source; they are usually repeats but may differ in a detail not shown here. Equal values may be shown once.

How the values were obtained:
bladder mucous membrane = test: Test 10: pathological changes in bladder mucous membrane after BBN and sodium erythorbate; assay type: in vivo, male F344 rats; conditions: 250 mg/kg in feed; for Number of animals with cancer / Number of animals with papilloma / Number of animals with papillary or tuberous hyperplasia: 28 observed; for Number of animals with cancer: unadministered 19 of 27; for Number of animals with papilloma: unadministered 20 of 27; for Number of animals with papillary or tuberous hyperplasia: unadministered 27 of 27; for Cancer, incidence: unadministered 70; for Papilloma, incidence: unadministered 74; for Papillary or tuberous hyperplasia, incidence: unadministered 100
Text: 5 groups of 6-week old male F344 rats were givn 0.05% (by weight. The definition is to be followed hereinafter) aqueous solution of N-butyl-N-(4-hydroxybutyl)nitrosoamine (BBN: bladder carcinogenic compound), as an initiator, by water supplying bottles for 4 weeks.

[1] = tested on: Ehrlich's ascites carcinoma cells; test: Test 1: survival of mice inoculated with Ehrlich's ascites carcinoma cells; assay type: in vivo, ddY mice; conditions: i.p., 10 mg/kg/day for 5 days, from 24 hours after inoculation
Description: 5-week old ddY mice were intraperitoneally inoculated with 10^6 Ehrlich's ascites carcinoma cells. Since 24 hours later, 50 mg/ml suspension of a test compound in 0.25% (% by weight. The definition is to be followed hereinafter) solution of Pluronic F68 in physiological saline was intraperitoneally injected to 10 animals/group at a dose of 10 mg/kg/day for 5 days.

stomach carcinoma = test: Test 9: stomach carcinoma after MNNG; assay type: in vivo, male Wistar rats; conditions: for Histological classification (per animal) / Borrmann's Classification (per animal): 250 mg/kg feed orally for 126 days after MNNG; for Borrmann's Classification (per animal): gross observation; for Cause of death (per animal): 250 mg/kg feed orally; for Survival time (per animal): 250 mg/kg feed, 337 = day of sacrifice
Description: 40 male Wistar rats (8-9-week old, body weight; 110 g) were given a drinking water containing 167 μg/ml of N-methyl-N'-nitro-N-nitrosoguanidine (MNNG: a carcinogenic compound) and a feed (dry pellets CE-2, produced by CLEA JAPAN) for 210 days.
The rats were allotted to 5 groups and treated as follows since the 211th day.
Administered group A: n=8. The compound A of the present invention (See below. The definition is to be followed hereinafter) was administered orally in an amount of 250 mg/kg feed for 126 consecutive days.
Administered group B: n=8. The compound B of the present invention was administered orally in an amount of 250 mg/kg feed for 126 consecutive days.
Administered group C: n=8. The compound C of the present invention was administered orally in an amount of 250 mg/kg feed for 126 consecutive days.
Administered group D: n=8. The compound D of the present invention was administered orally in an amount of 250 mg/kg feed for 126 consecutive days.
On the 337th day, the survining rats were sacrificed and the stomachs were (1) subjected to Borrmann's classification according to gross observation and (2) histologically observed (haematoxylin-eosin stain or ASAN stain), and then classified as follows.

[2] = Carcinostatic, carcinostasis-reinforcing and carcinogenesis-preventing activities (general statement)
adenocarcinoma 755 cells = test: Test 2: tumor growth suppression in mice inoculated with adenocarcinoma 755 cells; assay type: in vivo, F1 mongrel mice of C57BL/6 and DBA/2; conditions: s.c., 10 mg/kg/day for 5 days; 10 days after inoculation; control 6.5
Text: 6-week old F1 mongrel mice of C57BL/6 and DBA/2 were inoculated under back skin with 10^6 adenocarcinoma 755 cells. […] The animals were sacrificed 10 days after the inoculation with adenocarcinoma 755 cells, and the tumor was excised.

[3] = tested on: mouse neuroblastoma NAs-1 cells; test: Test 3: growth of mouse neuroblastoma NAs-1 cells; assay type: cell-based; conditions: for tumor growth suppressing effect: NAs-1 cells; for growth suppressed to: treatment conditions not given
Description: (§1) 14-methyl-1-pentadecanol and 18-methyl-1-nonadecanol were tested for tumor growth suppressing effects on three different tumor cell strains (Ehrlich's mouse ascites carcinoma cells, human lung carcinoma A549 cells and mouse neuroblastoma NAs-1 cells).
The growth of mouse neuroblastoma NAs-1 cells was suppressed to 7.8×10^-3 and 6.5×10^-3, respectively.

mammary cancer = test: Test 8: prevention of DMBA-induced mammary cancer; assay type: in vivo, female SD rats; conditions: DMBA 5 mg/body, 20 weeks, unadministered 15/30
Description: 6-week old female SD rats (n=90) were treated as follows using 14-methyl-1-pentadecanol as a carcinogenesis-preventing agent.
Unadministered group: n=30. MF powder feed (ORIENTAL KOBO K.K.) was given as a basic feed.
Administered group A: n=30. A test feed was given continually (for 7 days). The feed was prepared by admixing the said carcinogenesis-preventing agent (after emulsified in Pluronic F-68) with the abovementioned basic feed in an amount of 50 mg/kg.
Administered group B: n=30. A test feed was given continually (for 7 days). The feed was prepared by admixing the said carcinogenesis-preventing agent (after emulsified in Pluronic F-68) with the abovementioned basic feed in an amount of 250 mg/kg.
After the aforementioned treatment, 5 mg/body of […] (DMBA: a carcinogenic compound) was administered by injecting subcutaneously in mammary gland 0.1 ml/body of a 50 mg/ml benzanthracene solution. Then, each of the aforementioned groups was given corresponding feed for 20 weeks.
After the completion of the treatment, the rats were sacrificed and observed for the occurrence of mammary cancer.

[4] = tested on: human lung carcinoma A549 cells; test: Test 3: colony formation of human lung carcinoma A549 cells; assay type: cell-based; conditions: for tumor growth suppressing effect: A549 cells; for activity at 10 µM: Homo sapiens, A549, 6-hour treatment at 10 μM, read-out: colony formation rate
Description: as §1
These isomonools suppressed the colony formation rate of human lung A549 cells to 2.2×10^-3 and 4.1×10^-3, respectively, by 6-hour treatment at 10 μM.

Ehrlich's ascites cells = test: Test 6 and Comparing Test 2: uptake of bleomycin into Ehrlich's ascites cells; assay type: cell-based, mouse; conditions: bleomycin 60 μg/ml + isomonool 0.05 μM
Description: The amount of bleomycin taken up into Ehrlich's ascites cells was determined as a function of time in the case where bleomycin (60 μg/ml) was used in combination with 14-methyl-1-pentadecanol (0.05 μM).

[5] = tested on: Ehrlich's mouse ascites carcinoma cells; test: Test 3: growth of Ehrlich's mouse ascites carcinoma cells; assay type: cell-based; conditions: for tumor growth suppressing effect: Ehrlich's cells; for activity at 10 µM: Mus musculus, Ehrlich, 120 h, 5-day treatment at 10 μM, read-out: growth suppressed to
Description: as §1
These isomonools suppressed the growth of Ehrlich's ascites carcinoma cells to 4.5×10^-3 and 1.5×10^-2, respectively, by 5-day treatment at 10 μM.

[6] = tested on: Ehrlich's mouse ascites carcinoma cells; test: Test 7 and Comparing Tests 3 and 4: survival of mice inoculated with Ehrlich's mouse ascites carcinoma cells; assay type: in vivo, male C57BL/6 mice; conditions: bleomycin + isomonool; for Number of surviving mice: of 8
Description: 5-week old male C57BL/6 mice were intraperitoneally inoculated with 10^6 Ehrlich's mouse ascites carcinoma cells. Since 24 hours later, a 50 μg/ml solution of bleomycin in 0.25% HCO-60 solution in physiological saline, and a suspension containing 50 μg/ml of bleomycin and 5 μg/ml of 14-methyl-1-pentadecanol were intraperitoneally injected at a dose of 10 mg/kg·day and 11 mg/kg·day, respectively, to each 8 animals/group for 5 days. The survival time of the injected mice was then followed.

CCCC(C)CCCCCCCCCCCCCO (centres unmarked) [14-methyl-1-heptadecanol]
Number of animals with cancer (bladder mucous membrane): 0
Number of animals with papilloma (bladder mucous membrane): 0
Number of animals with papillary or tuberous hyperplasia (bladder mucous membrane): 0
Cancer, incidence (bladder mucous membrane): 0%
Papilloma, incidence (bladder mucous membrane): 0%
Papillary or tuberous hyperplasia, incidence (bladder mucous membrane): 0%

CCC(C)CCCCCCCCCCCCCO (centres unmarked) [14-methyl-1-hexadecanol]
mean survival time after inoculation [1]: 57.5 days
Histological classification (per animal) (stomach carcinoma): I and 0
Borrmann's Classification (per animal) (stomach carcinoma): 0
carcinostatic, carcinostasis-reinforcing and carcinogenesis-preventing activities [2]: especially potent in activities
Number of animals with cancer (bladder mucous membrane): 0
Number of animals with papilloma (bladder mucous membrane): 0
Number of animals with papillary or tuberous hyperplasia (bladder mucous membrane): 0
Cancer, incidence (bladder mucous membrane): 0%
Papilloma, incidence (bladder mucous membrane): 0%
Papillary or tuberous hyperplasia, incidence (bladder mucous membrane): 0%

CCC(C)CCCCCCCCCCCCCCCO (centres unmarked) [16-methyl-1-octadecanol]
Cause of death (per animal) (stomach carcinoma): dead in cage
Histological classification (per animal) (stomach carcinoma): I and 0 and I-II
Borrmann's Classification (per animal) (stomach carcinoma): 0
Survival time (per animal) (stomach carcinoma): 301 days and 312 days and 337 days
mean tumor weight (adenocarcinoma 755 cells): 2.3 g

CC(C)CCCCCCCCCCCCCCCO [16-methyl-1-heptadecanol]
Cause of death (per animal) (stomach carcinoma): dead in cage
Histological classification (per animal) (stomach carcinoma): 0 and I-II
Borrmann's Classification (per animal) (stomach carcinoma): 0
Survival time (per animal) (stomach carcinoma): 305 days and 337 days
mean tumor weight (adenocarcinoma 755 cells): 1.6 g
Number of animals with cancer (bladder mucous membrane): 0
Number of animals with papilloma (bladder mucous membrane): 0
Number of animals with papillary or tuberous hyperplasia (bladder mucous membrane): 1
Cancer, incidence (bladder mucous membrane): 0%
Papilloma, incidence (bladder mucous membrane): 0%
Papillary or tuberous hyperplasia, incidence (bladder mucous membrane): 4%

CC(C)CCCCCCCCCCCCCO [14-methyl-1-pentadecanol]
mean survival time after inoculation [1]: ≥ 60 days
tumor growth suppressing effect [3]: effective
growth suppressed to [3]: 7.8×10^-3
Number of animals with mammary cancer/Number of tested animals (mammary cancer; group A, 50 mg/kg in feed): 8/30
Number of animals with mammary cancer/Number of tested animals (mammary cancer; group B, 250 mg/kg in feed): 4/30
tumor growth suppressing effect [4]: effective
activity at 10 µM [4]: 0.22%
Bleomycin uptake (Ehrlich's ascites cells; 30 min): 0.13 μg/mg Ehrlich's cell
Bleomycin uptake (Ehrlich's ascites cells; 60 min): 0.26 μg/mg Ehrlich's cell
Bleomycin uptake (Ehrlich's ascites cells; 120 min): 0.39 μg/mg Ehrlich's cell
Bleomycin uptake (Ehrlich's ascites cells; 180 min): 0.55 μg/mg Ehrlich's cell
Bleomycin uptake (Ehrlich's ascites cells; Initial): 0 μg/mg Ehrlich's cell
Histological classification (per animal) (stomach carcinoma): I and 0
Borrmann's Classification (per animal) (stomach carcinoma): 0
Survival time (per animal) (stomach carcinoma): 337 days
carcinostatic, carcinostasis-reinforcing and carcinogenesis-preventing activities [2]: especially potent in activities
tumor growth suppressing effect [5]: effective
activity at 10 µM [5]: 0.45%
mean survival time after inoculation ([6]; i.p., 11 mg/kg.day for 5 days (Test 7)): 54.3 days
Number of surviving mice ([6]; day 14): 8
Number of surviving mice ([6]; day 15): 8
Number of surviving mice ([6]; day 16): 8
Number of surviving mice ([6]; day 17): 8
Number of surviving mice ([6]; day 18): 8
Number of surviving mice ([6]; day 19): 8
Number of surviving mice ([6]; day 20): 8
Number of surviving mice ([6]; day 23): 8
Number of surviving mice ([6]; day 33): 8
Number of surviving mice ([6]; day 41): 8
Number of surviving mice ([6]; day 45): 6
Number of surviving mice ([6]; day 52): 4
Number of surviving mice ([6]; day 57): 4
Number of surviving mice ([6]; day 60): 4

CC(C)CCCCCCCCCCCCCCCCCO [18-methyl-1-nonadecanol]
tumor growth suppressing effect [3]: effective
growth suppressed to [3]: 6.5×10^-3
tumor growth suppressing effect [4]: effective
activity at 10 µM [4]: 0.41%
tumor growth suppressing effect [5]: effective
activity at 10 µM [5]: 1.5%
Number of animals with cancer (bladder mucous membrane): 0
Number of animals with papilloma (bladder mucous membrane): 0
Number of animals with papillary or tuberous hyperplasia (bladder mucous membrane): 2
Cancer, incidence (bladder mucous membrane): 0%
Papilloma, incidence (bladder mucous membrane): 0%
Papillary or tuberous hyperplasia, incidence (bladder mucous membrane): 7%
